# Tests used:
# NRF2 = experiment: NRF2/HO-1 induction in Keap1−/− versus Keap1+/+ MEFs; type: cell-based, mouse; conditions: PHAR 10 μM, 8 h
# Method: FIG. 5. PHAR-mediated NRF2 activation is independent of KEAP1 and is responsible for the increase in the expression of its targets. (A-D) Serum-deprived MEFs originating from wild-type (WT) or KEAP1 null (Keap1−/−) mice were treated with 10 μM of PHAR for the indicated times. 0.1% DMSO was used as a vehicle. A), representative immunoblots of NRF2, HO1, KEAP1, LAMINB, and GAPDH as loading controls. B) and C), densitometric analysis of NRF2 and HO1 protein levels of the representative immunoblots of (A), expressed as a ratio of NRF2/LAMINB or HO1/GAPDH. The data is depicted as means±SEM (n=3). Statistical analysis was performed with two-way ANOVA followed by the Bonferroni test to check inter-group differences. D), the mRNA levels of Hmox-1, Nqo1, Aox1, Gc1c, and Gc1m were determined after 8 h of 10 μM PHAR by means of qRT-PCR and normalized by means of average Gapdh, Tbp, and β-actin. The data is depicted as mean±SEM (n=3). […] F) and G), densitometric analysis of NRF2 and HO1 protein levels of the representative immunoblots of (E), expressed as a ratio of NRF2/LAMINB or HO1/GAPDH. […] H), the mRNA levels of Hmox-1, Nqo1, Aox1, Gclc, and Gclm were determined after 8 h of 10 μM PHAR by means of qRT-PCR and normalized by means of average Gapdh, Tbp, and β-actin. […]
# STAM mice (NAFLD) = experiment: STAM fatty liver model, treatment from steatosis stage (week 6); type: in vivo, mouse
# Method: FIG. 12. PHAR decreases the inflammatory response in mice subjected to fatty liver in the STAM model. The STAM model is based on the induction of non-alcoholic fatty liver (NAFLD) generated by the subcutaneous injection of streptozotocin (STZ) in neonatal C57BL/6J mice (2-5 days old) followed by a high-fat diet administered from 4 weeks of age. In this case, we treated mice in the steatosis stage (week 6), 5 days a week with an IP administration of 50 mg/kg in order to analyze if PHAR prevents progression to the next stage (NASH). A), H&E staining of liver from PHAR-treated and untreated STAM mice. Histochemical lipid staining with oil red was used to visualize the amount of liver fat. B), normalized quantification of the amount of liver fat per mouse, measured by MRI, on the last day of treatment. C), representative MRI profiles of one mouse liver of each group. The peak that appears at an approximate frequency of 4.7 ppm corresponds to the water molecule (the majority), while the rest of the peaks give information on the amount of liver fat. The ratio of the sum of the fat peaks to water indicates the total liver fat content. D), mRNA levels of several genes involved in fatty acid metabolism (Cpt1a, Scd1, Cd36 and Fasn). E), the mRNA levels of the pro-inflammatory (Tnf, Il6 and Infg) and anti-inflammatory (Il10 and Il4) cytokines were determined by qRT-PCR and were normalized by the average of Gapdh, Tbp and β-actin. Statistical analysis was performed using a Student's t test to compare the differences between PHAR-treated mice vs vehicle-treated mice. *p<0.05; **p<0.01.
# As previously described, the STAM model is a murine model used for the study of non-alcoholic fatty liver disease (NAFLD), as well as for the search of new effective treatments. This model is generated by the subcutaneous injection of streptozotocin (STZ) in 2-5 day old neonatal C57BL/6J mice followed by a high-fat diet, administered after 4 weeks of age. STZ produces a pancreatic lesion that leads to the appearance of hyperglycemia that, together with the high-fat diet, gradually leads to different stages of progressive liver damage: steatosis (week 6 post-STZ injection); Inflammatory NASH (week 8); NASH fibrosis (week 10) and, finally, hepatocarcinoma (week 16). The pathogenesis of NAFLD is closely related to the appearance of reactive oxygen species, chronic low-grade inflammation, and changes in lipid metabolism. For this reason, we determined whether PHAR, as an inducer of NRF2, could attenuate the inflammatory response. Specifically, we treated mice in the steatosis stage (week 6), 5 days a week with an IP administration of 50 mg/kg in order to analyze if it prevents progression to the next stage (NASH). […] Altogether, we conclude that PHAR slows down the accumulation of fat and, therefore, prevents the appearance of NASH.
# [1] = STAM mice from week 6, IP 50 mg/kg 5 days a week
smiles,measurement,setting,value
O=C1[C@@H]2[C@H](Cc3c[nH]c4ccccc34)N[C@]3(C(=O)Nc4ccc(Cl)cc43)[C@@H]2C(=O)N1c1ccc2c(c1)OCCO2 [PHAR],mRNA levels of other NRF2 targets in Keap1−/− compared with Keap1+/+ MEFs,NRF2,The same result was obtained
same,accumulated liver fat (oil red),STAM mice (NAFLD); [1],significantly decreased the amount of accumulated liver fat
same,liver fat quantity by MRI at the end of treatment,STAM mice (NAFLD); [1],slows the accumulation of liver fat
same,expression of anti-inflammatory cytokines Il10 and Il4,"STAM mice (NAFLD); STAM mice from week 6, liver",to increase the anti-inflammatory cytokines
same,"expression of pro-inflammatory cytokines Tnf, Il6, Infg","STAM mice (NAFLD); STAM mice from week 6, liver",tendency to decrease
same,"fatty acid synthesis, Fasn expression (mRNA)","STAM mice (NAFLD); STAM mice from week 6, liver",decreasing of Fasn
same,"lipid catabolism, expression of Cpt1a (mRNA)","STAM mice (NAFLD); STAM mice from week 6, liver",increase in lipid catabolism

# From patent US12590100B2, “Tetrahydro-spiroindoline-pyrrolopyrrole-triones inhibitors of the NRF2-β-TrCP interaction for use in the treatment of fatty liver disease” (Universidad Autonoma De Madrid, priority 2021, dated 2026)
